What was measured:
[1] = system: GABAAR co-expressed with UT^HA 370; test: Patch-clamp of Iso-evoked current in CHO co-expressing GABAAR and truncated UT^HA 370; format: cell-based; details: hUII 10^−8 M, 1 min, Iso 10^−4 M, 2 s
Text: For UT epitope-tagged with HA (UT^HA), or c-myc (UT^c-myc), human UT receptor cDNA inserted into pcDNA3.1 (Ressource Center, MI, USA) was amplified and PCR products were subcloned using the EcoRI and XhoI sites of pCMV-HA or pCMV-c-myc. Mutant UT receptor cDNAs were constructed by oligonucleotide-directed mutagenesis (Expand High Fidelity PCR System; Roche) using the human UT receptor cDNA inserted into pcDNA3.1 as a template. Two sets of forward and reverse oligonucleotides were used (Table S2) to introduce stop codons in frame of Leu370, Phe351, Gly332 and Thr319 (to generate UT371, UT351, UT332 and UT319, respectively). PCR products were subcloned using the EcoRI and XhoI sites of pCMV-HA after digestion by the same restriction enzymes. Mutagenesis was confirmed by automated nucleotide sequencing.
The conventional whole-cell configuration of the patch-clamp technique was used to study the GABA-gated currents in astrocytes and granule neurons, UT stably transfected CHO, CHO-UT, and CHO transiently transfected with diverse variants of UT and GABAAR subunits. After 24-h transfection, cell culture coverslips were placed in a small chamber (1.5 ml) on a stage of a right microscope DMLFSA (Leica, Heidelberg, Germany) and superfused continuously with the following bath solution containing (in mM): NaCl, 150; KCl, 2.5; HEPES, 5; CaCl2, 2; MgCl2, 1; glucose, 10 (pH 7.4 adjusted with NaOH). […]

[2] = system: UT in human U87 glioma; test: Cell surface ELISA of UT in U87 glioma; format: cell-based; details: hUII 10^−8 M, 30 min, absence or presence of the UT C-terminus
Description: The human cell line from glioblastoma U87 was obtained from the American Type Culture Collection (LGC Standards, Molsheim, France). U87 cells were maintained in DMEM containing 10% FBS and 1% sodium pyruvate. NHA-Astrocytes (Lonza, Walkersville, MD, USA) were cultivated in DMEM culture medium supplemented with 2 mM glutamine, 5 mM HEPES, 1% non essential amino acids, 1% sodium pyruvate, B27, 25 ng/ml EGF, 1% of the antibiotic-antimycotic solution and 10% FBS. All cells were incubated at 37°C in a humidified atmosphere containing 5% CO2. Culture media were replaced every three days.
Cells were plated at 50 000 cells/well in 96-well plates coated with 0.1 mg/ml poly-L-ornithine (Sigma-Aldrich). […] Cells were fixed with 4% PFA in PBS for 5 min at RT, washed in PBS, and then permeabilized in 0.05% triton X100 (only for permeabilized cells) and non specific binding were blocked with PBS containing 1% FBS for 30 min at RT. […] The cells were washed four times with PBS, a colorimetric alkaline phosphatase substrate was added (SuperSignal ELISA, Thermo scientific, Fisher) and the resulting color reaction was measured using a Viktor multilabel plate reader (PerkinElmer, Courtaboeuf, France). Background absorbance from samples transfected with non-tagged receptors or from cells without first antibodies were systematically measured. […]

ETPDCFWKYCV (disulfide) [hUII, human urotensin II, synthesized by solid phase methodology]
hUII-induced fast short-term inhibition with UT^HA 370 [1]: totally abolished | hUII-induced long-term inhibition with UT^HA 370 ([1]; washout): delayed, and significantly altered | UT levels at the cell surface, U87 [2]: remained unchanged

From publication PMC3341351, “Down-Regulation of GABAA Receptor via Promiscuity with the Vasoactive Peptide Urotensin II Receptor. Potential Involvement in Astrocyte Plasticity” (PLoS ONE, 2012)
